Measured values reported in ChEMBL document CHEMBL1201862, “PubChem BioAssay data set” (2004).
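In this assay, cells in 96-well plates receive the compound at five concentrations for 48 hours. Endpoints are linearly interpolated between the surrounding concentrations. GI50: concentration for 50% inhibition of growth.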 Active and inactive are the calls of the source. Rule as the data show it: active = GI50 up to about 1.1 µM and inactive = higher.

How the values were obtained:
Assay in all cases: growth of human tumour cells (NCI), 48 h
786-0 = tested on: 786-0
DU-145 = tested on: DU-145
EKVX = tested on: EKVX
HCT-116 = tested on: HCT-116
K562 = tested on: K562
LOX IMVI = tested on: LOX IMVI
MCF7 = tested on: MCF7
MDA-MB-231 = tested on: MDA-MB-231
MDA-N = tested on: MDA-N
Malme-3M = tested on: Malme-3M
NCI-H460 = tested on: NCI-H460
OVCAR-4 = tested on: OVCAR-4
RXF 393 = tested on: RXF 393
SF-268 = tested on: SF-268
SK-OV-3 = tested on: SK-OV-3
SN12C = tested on: SN12C
SW-620 = tested on: SW-620
TK-10 = tested on: TK-10
U-251 = tested on: U-251
UACC-62 = tested on: UACC-62

Measured: GI50

CCC(=O)/C=C/c1ccccc1
inactive: 786-0 46 µM | DU-145 > 100 µM | EKVX > 100 µM | HCT-116 31.3 µM | K562 25.6 µM | LOX IMVI 22.8 µM | MCF7 31.7 µM | MDA-MB-231 > 100 µM | MDA-N 40.6 µM | Malme-3M > 100 µM | NCI-H460 70.3 µM | OVCAR-4 95.9 µM | RXF 393 73.3 µM | SF-268 94 µM | SK-OV-3 31.3 µM | SN12C 43.2 µM | SW-620 32.5 µM | TK-10 > 100 µM | U-251 37.9 µM | UACC-62 37 µM

C[C@@H]1[C@@H](C)C(c2ccccc2)O[Si]1(C(C)(C)C)C(C)(C)C (stereo not given in full)
inactive: 786-0 16 µM | DU-145 17.6 µM | EKVX 17.1 µM | HCT-116 15.5 µM | K562 22.3 µM | LOX IMVI 16.9 µM | MCF7 18.1 µM | MDA-MB-231 16.9 µM | MDA-N 22.5 µM | Malme-3M 9.71 µM | NCI-H460 17.4 µM | OVCAR-4 37.8 µM | RXF 393 17.1 µM | SF-268 25.2 µM | SK-OV-3 26.5 µM | SN12C 17.4 µM | SW-620 18.8 µM | TK-10 16.4 µM | U-251 17 µM | UACC-62 19.1 µM

COc1cc(OC)cc(-c2cc(=O)c3c(OC)c(OC)c(OC)c(OC)c3o2)c1
inactive: 786-0 29.9 µM | DU-145 30.2 µM | EKVX 29.2 µM | HCT-116 31.3 µM | K562 20.7 µM | LOX IMVI 35.5 µM | MCF7 63.7 µM | MDA-MB-231 59.7 µM | MDA-N 41.2 µM | Malme-3M 31.6 µM | NCI-H460 29 µM | OVCAR-4 22.9 µM | RXF 393 18.2 µM | SF-268 29.6 µM | SK-OV-3 5.93 µM | SN12C 26.4 µM | SW-620 35.7 µM | TK-10 70.6 µM | U-251 31.9 µM | UACC-62 31.9 µM

OC(c1cc(C(O)(C(F)(F)F)C(F)(F)F)ncn1)(C(F)(F)F)C(F)(F)F
inactive: 786-0 > 10 µM | DU-145 > 10 µM | EKVX > 10 µM | HCT-116 > 10 µM | K562 > 10 µM | LOX IMVI > 10 µM | MCF7 > 10 µM | MDA-MB-231 > 10 µM | MDA-N > 10 µM | Malme-3M > 10 µM | NCI-H460 > 10 µM | OVCAR-4 > 10 µM | RXF 393 > 10 µM | SF-268 > 10 µM | SK-OV-3 > 10 µM | SN12C > 10 µM | SW-620 > 10 µM | TK-10 > 10 µM | U-251 > 10 µM | UACC-62 > 10 µM

COC(=O)[C@]1(c2cc3ccccc3[nH]2)CC2CN(CC(=O)N(C)OC)C1C1OC(C)(C)OC21 (stereo not given in full)
inactive: 786-0 45.9 µM | DU-145 > 100 µM | EKVX 63.5 µM | HCT-116 32.4 µM | K562 35.2 µM | LOX IMVI 59.7 µM | MCF7 36.1 µM | MDA-MB-231 31.6 µM | MDA-N 49.5 µM | Malme-3M > 100 µM | NCI-H460 39 µM | OVCAR-4 36.9 µM | RXF 393 45.8 µM | SF-268 > 100 µM | SK-OV-3 > 100 µM | SN12C 55 µM | SW-620 93.3 µM | TK-10 56.6 µM | U-251 54.3 µM | UACC-62 61.7 µM

O=c1cc(CNC2CCCC2)[nH]c(=O)[nH]1
inactive: 786-0 > 100 µM | DU-145 > 100 µM | EKVX > 100 µM | HCT-116 > 100 µM | K562 > 100 µM | LOX IMVI > 100 µM | MCF7 > 100 µM | MDA-MB-231 > 100 µM | MDA-N > 100 µM | Malme-3M > 100 µM | NCI-H460 > 100 µM | OVCAR-4 > 100 µM | RXF 393 > 100 µM | SF-268 > 100 µM | SK-OV-3 > 100 µM | SN12C > 100 µM | SW-620 > 100 µM | TK-10 > 100 µM | U-251 > 100 µM | UACC-62 > 100 µM

CCCC(C)c1c(Cl)nc(Cl)nc1Cl (stereo not given)
inactive: 786-0 4.79 µM | DU-145 15 µM | EKVX 18.3 µM | HCT-116 1.73 µM | K562 3.37 µM | LOX IMVI 1.66 µM | MCF7 8.55 µM | MDA-MB-231 9.27 µM | MDA-N 4.72 µM | Malme-3M 8.45 µM | NCI-H460 11 µM | OVCAR-4 17.1 µM | RXF 393 10.6 µM | SF-268 10.3 µM | SK-OV-3 20.2 µM | SN12C 7.94 µM | SW-620 4.23 µM | TK-10 20.9 µM | U-251 9.38 µM | UACC-62 > 10 µM

CCCCCCCC/C=C1\CCC(CN2CCOCC2)C1=O (stereo not given)
inactive: 786-0 1.68 µM | DU-145 5.3 µM | EKVX 17.7 µM | HCT-116 3.53 µM | K562 2.74 µM | LOX IMVI 3.43 µM | MCF7 1.94 µM | MDA-MB-231 2.23 µM | MDA-N 9.55 µM | Malme-3M 10.5 µM | NCI-H460 16.5 µM | OVCAR-4 13.3 µM | RXF 393 12.5 µM | SF-268 9.35 µM | SK-OV-3 19.9 µM | SN12C 5.7 µM | SW-620 2.7 µM | TK-10 2.77 µM | U-251 14.8 µM | UACC-62 5.35 µM
